Here are results for 1 molecule from patent publication EP0148096A1, “Diversely substituted 1-arylamino-3-amino-2-propanols, process for their preparation and their therapeutical application” (CORTIAL S.A., priority 1983, dated 1985).

Data set [1] relates to rat en surcharge hydrique. The data set is described as follows: diuretic activity, water-loaded rat. The data set is classed as in vivo. To be noted: dose orale de 20 mg/kg, fold factor. How it is done:
L'activité diurétique a été déterminée chez le rat. Ainsi le COR37 49C administré au rat en surcharge hydrique à la dose orale de 20 mg/kg multiplie par 2,2 l'excrétion urinaire de sodium.

For another data set, the target named is T1, H2 (Cavia porcellus, UniProt P47747).
T1 construct: sur l'oreillette droite de cobaye non stimulée; from tissue; host or cells: guinea pig right atrium, unstimulated
T1 sequence (P47747 whole entry): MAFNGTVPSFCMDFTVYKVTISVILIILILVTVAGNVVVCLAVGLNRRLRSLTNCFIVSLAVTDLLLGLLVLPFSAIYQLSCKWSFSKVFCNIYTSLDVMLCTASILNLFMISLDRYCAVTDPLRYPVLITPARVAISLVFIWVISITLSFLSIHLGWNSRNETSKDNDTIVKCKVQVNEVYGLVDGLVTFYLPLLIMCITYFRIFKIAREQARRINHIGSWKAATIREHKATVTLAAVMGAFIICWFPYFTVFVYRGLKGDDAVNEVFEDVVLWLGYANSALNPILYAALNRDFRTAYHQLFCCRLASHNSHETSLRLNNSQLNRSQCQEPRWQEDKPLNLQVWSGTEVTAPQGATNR
The data set is described as follows: anti-H2 antihistaminic activity in vitro, unstimulated guinea pig right atrium. The data set is classed as cell-based. Conditions: 25 microg/ml; 5 microg/ml d'histamine, oreillette droite de cobaye non stimulée; read-out: inhibition de l'effet chronotrope induit par l'histamine. The text has this: L'activité antihistaminique antiH2 a été mise en évidence in vitro. A la concentration de 25 microg/ml le COR37 49C inhibe à 50 % l'effet chronotrope induit par 5 microg/ml d'histamine sur l'oreillette droite de cobaye non stimulée.

Data set [2] has as its system souris rendue hypercholestérolémique. The data set is described as follows: hypolipidaemic activity, hypercholesterolaemic mouse (cholesterol and cholic acid diet, 7 days). The data set is classed as in vivo. To be noted: voie orale le 6e et le 7e jour, 400 mg/kg. How it is done:
L'activité hypolipidémiante a été mise en évidence chez la souris rendue hypercholestérolémique par un régime riche en cholestérol et acide cholique pendant 7 jours. Ainsi l'administration par voie orale du COR37 49C le 6e et le 7e jour, entraine une diminution du cholestérol sérique de 22 % à la dose de 400 mg/kg.

A further data set relates to souris. Put plainly: acute toxicity, intraperitoneal administration, solution in Tween. The data set is classed as in vivo. Conditions: voie intrapéritonéale, 200 mg/kg, solution dans le Tween.
For data set [3], the system named is oreillette gauche de cobaye. Put plainly: calcium-antagonist activity in vitro, electrically stimulated guinea pig left atrium in low-calcium Tyrode. The data set is classed as cell-based. Conditions: 100 Microg/ml; 150 battements/mn, Tyrode pauvre en calcium (0,6mM), addition de 0,6 mM de calcium. Here is the method:
L'activité anticalcique a été déterminée in vitro sur oreillette gauche de cobaye stimulée électriquement à 150 battements/mn dans une solution de Tyrode pauvre en calcium (0,6mM).

The next data set addresses T2, Hl (Cavia porcellus, UniProt P31389).
T2 construct: in vitro sur iléon de cobaye; from tissue; host or cells: guinea pig ileum
Put plainly: anti-H1 antihistaminic activity in vitro, guinea pig ileum. The data set is classed as cell-based. To be noted: 25 microg/ml; iléon de cobaye; read-out: inhibition des contractions induites par l'histamine. The text has this: L'activité antihistaminique antiHl a été mise en évidence in vitro sur iléon de cobaye. Le COR37 49C employé à la concentration de 25 microg/ml inhibe à 80 % les contractions induites par l'histamine.

A short description of data set [4]: acute toxicity, oral administration, solution in Tween. Conditions: mouse, in vivo, souris, voie orale, 300 mg/kg, solution dans le Tween, read-out: mortalité. Here is the method: La toxicité a été déterminée chez la souris. En solution dans le Tween et après administration par voie orale le COR37 05C entraine 0 % de mortalité à 500 mg/kg, 40 % à 750 et 40 % à 1000; le COR37 06C entraine 0 % de mortalité à 100 mg/kg, 10 % à 200, 10 % à 250, 90 % à 375, 100 % à 500 (DL50 = 294 mg/kg (261-332); les COR37 09C, COR37 49C et COR37 50C entrainent 0 % de mortalité à 300 mg/kg. En solution dans le Tween et après administration par voie intrapéritonéale le COR37 05C entraine 0 % de

T2 sequence (P31389 whole entry): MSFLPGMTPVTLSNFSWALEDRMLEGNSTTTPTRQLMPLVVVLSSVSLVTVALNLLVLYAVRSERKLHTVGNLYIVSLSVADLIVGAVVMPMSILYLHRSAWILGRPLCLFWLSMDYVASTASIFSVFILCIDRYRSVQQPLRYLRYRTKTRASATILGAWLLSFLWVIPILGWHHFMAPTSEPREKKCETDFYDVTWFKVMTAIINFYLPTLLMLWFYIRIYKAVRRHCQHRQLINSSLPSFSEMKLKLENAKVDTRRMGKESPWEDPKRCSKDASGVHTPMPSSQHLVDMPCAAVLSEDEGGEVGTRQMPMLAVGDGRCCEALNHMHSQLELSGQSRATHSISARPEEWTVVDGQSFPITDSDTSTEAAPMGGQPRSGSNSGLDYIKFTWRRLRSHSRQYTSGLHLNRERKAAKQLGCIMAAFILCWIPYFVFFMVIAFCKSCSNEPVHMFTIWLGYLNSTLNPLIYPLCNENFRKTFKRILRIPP

As to `CC(C)c1ccccc1NCC(O)CN(C)C` (stereo not shown) [COR37 49C, Dichlorhydrate de l'(isopropyl-2 anilino)-l diméthylamino-3 propanol-2], the “multiplication de l'excrétion urinaire de sodium” value in data set [1] was 2,2. Moreover, the inhibition at 25 µg/mL is 50% on H2 and 80% on Hl. In addition, the “diminution du cholestérol sérique” value in data set [2] stood at 22%. Besides, in the data set with souris, the mortalité result is “aucune mortalité”. Moreover, the activité anticalcique result in data set [3] is on record as “inhibent l'augmentation de la force contractile”. The mortality in data set [4] amounted to 0%.

Usually inhibition stands for the drop in the measured response relative to a control, in per cent.
